Key:
Format in all cases: in vivo
Stellaria media = experiment: Post-emergence herbicidal action against weed plants; conditions: 504 h, one-leaf stage, visual assessment after about 3 weeks vs untreated controls (100% = plants have died)
Method: (§1) 2. Post-emergence Herbicidal Action Against Weed Plants Seeds of monocotyledonous and dicotyledonous weed and crop plants are placed in sandy loam in wood-fiber pots, covered with soil and cultivated in a greenhouse under good growth conditions. 2 to 3 weeks after sowing, the test plants are treated at the one-leaf stage. The inventive compounds formulated in the form of wettable powders (WP) or as emulsion concentrates (EC) are then sprayed onto the green parts of the plants as an aqueous suspension or emulsion at a water application rate of 600 to 800 I/ha (converted) with addition of 0.2% wetting agent. After the test plants have been left to stand in the greenhouse under optimal growth conditions for about 3 weeks, the action of the formulations is assessed visually in comparison to untreated controls (herbicidal action in percent (%): 100% activity=the plants have died, 0% activity=like control plants).

Abutilon theophrasti = experiment: as above; conditions: 504 h, one-leaf stage, visual assessment after about 3 weeks vs untreated controls (100% = plants have died)
Method: as §1

maize = experiment: Pre-emergence test, damage to crop plants; conditions: 320 g/ha, visual assessment after 3 weeks

Which results are given for COc1c([N+](=O)[O-])ccc(C(=O)Nc2nnnn2C)c1Br [1-1, 2-bromo-3-methoxy-N-(1-methyl-1H-tetrazol-5-yl)-4-nitrobenzamide]?
pest or weed control at 80 g/ha (Stellaria media): ≥ 80%; pest or weed control at 80 g/ha (Abutilon theophrasti): ≥ 80%

CCOCCOc1c([N+](=O)[O-])ccc(C(=O)Nc2nnnn2C)c1Br [1-20] was tested. Which damage in maize (maize) did it give?
The damage in maize was “no damage whatsoever”.

How did the damage in maize (maize) turn out when Cn1nnnc1NC(=O)c1ccc([N+](=O)[O-])c(OCC2COCCO2)c1Br (stereo not shown) [1-34] was run?
The damage in maize was “no damage whatsoever”.

And the pest or weed control at 80 g/ha (Stellaria media)?
The pest or weed control at 80 g/ha was no less than 80%.

And the pest or weed control at 80 g/ha (Abutilon theophrasti)?
Its pest or weed control at 80 g/ha is no less than 80%.

What does the source list for COc1c([N+](=O)[O-])ccc(C(=O)Nc2nnnn2C)c1Cl [1-44]?
pest or weed control at 80 g/ha (Stellaria media): ≥ 80%; pest or weed control at 80 g/ha (Abutilon theophrasti): ≥ 80%

Which damage in maize (maize) does the source give for COCCOc1c([N+](=O)[O-])ccc(C(=O)Nc2nnnn2C)c1Cl [1-61] here?
The damage in maize was “no damage whatsoever”.

With COCCCOc1c([N+](=O)[O-])ccc(C(=O)Nc2nnnn2C)c1Cl [1-62] as the compound, how does the damage in maize (maize) read?
Its damage in maize is “no damage whatsoever”.

What does the source list for Cn1nnnc1NC(=O)c1ccc([N+](=O)[O-])c(OCC2COCCO2)c1Cl (stereo not shown) [1-77]?
damage in maize (maize): no damage whatsoever; pest or weed control at 80 g/ha (Stellaria media): ≥ 80%; pest or weed control at 80 g/ha (Abutilon theophrasti): ≥ 80%

For Cn1nnnc1NC(=O)c1ccc([N+](=O)[O-])c(OCC2OCCO2)c1Cl [1-78], which damage in maize (maize) is on record?
The damage in maize was “no damage whatsoever”.

What about the pest or weed control at 80 g/ha (Stellaria media) of the same compound?
Its pest or weed control at 80 g/ha is no less than 80%.

And the pest or weed control at 80 g/ha (Abutilon theophrasti)?
Its pest or weed control at 80 g/ha is no less than 80%.

Cc1c(C(=O)Nc2nnnn2C)ccc([N+](=O)[O-])c1OCC1COCCO1 (stereo not shown) [1-119] was tested. Which pest or weed control at 80 g/ha (Stellaria media) did it give?
Its pest or weed control at 80 g/ha is no less than 80%.

And the pest or weed control at 80 g/ha (Abutilon theophrasti)?
Its pest or weed control at 80 g/ha is no less than 80%.

With CCn1nnnc1NC(=O)c1ccc([N+](=O)[O-])c(OC)c1Br [2-1] as the compound, how does the pest or weed control at 80 g/ha (Stellaria media) read?
The pest or weed control at 80 g/ha was no less than 80%.

And the pest or weed control at 80 g/ha (Abutilon theophrasti)?
The pest or weed control at 80 g/ha was no less than 80%.

For CCn1nnnc1NC(=O)c1ccc([N+](=O)[O-])c(OCCCOC)c1Br [2-19], which damage in maize (maize) is on record?
The damage in maize was “no damage whatsoever”.

Which pest or weed control at 80 g/ha (Stellaria media) does the source give for CCn1nnnc1NC(=O)c1ccc([N+](=O)[O-])c(OCC2COCCO2)c1Br (stereo not shown) [2-34] here?
The pest or weed control at 80 g/ha was no less than 80%.

And the pest or weed control at 80 g/ha (Abutilon theophrasti)?
Its pest or weed control at 80 g/ha is no less than 80%.

CCn1nnnc1NC(=O)c1ccc([N+](=O)[O-])c(OC)c1Cl [2-44] was tested. Which pest or weed control at 80 g/ha (Stellaria media) did it give?
The pest or weed control at 80 g/ha was no less than 80%.

What about the pest or weed control at 80 g/ha (Abutilon theophrasti) of the same compound?
Its pest or weed control at 80 g/ha is no less than 80%.

Which damage in maize (maize) does the source give for CCn1nnnc1NC(=O)c1ccc([N+](=O)[O-])c(OCCOC)c1Cl [2-61] here?
The damage in maize was “no damage whatsoever”.

Which damage in maize (maize) does the source give for CCn1nnnc1NC(=O)c1ccc([N+](=O)[O-])c(OCCCOC)c1Cl [2-62] here?
Its damage in maize is “no damage whatsoever”.

CCn1nnnc1NC(=O)c1ccc([N+](=O)[O-])c(OCCOC)c1C [2-104] was tested. Which damage in maize (maize) did it give?
The damage in maize was “no damage whatsoever”.

CCn1nnnc1NC(=O)c1ccc([N+](=O)[O-])c(OCC2COCCO2)c1C (stereo not shown) [2-120] was tested. Which pest or weed control at 80 g/ha (Stellaria media) did it give?
The pest or weed control at 80 g/ha was no less than 80%.

And the pest or weed control at 80 g/ha (Abutilon theophrasti)?
The pest or weed control at 80 g/ha was no less than 80%.

For CCn1nnnc1NC(=O)c1ccc([N+](=O)[O-])c(OCC(=O)N(C)C)c1C [2-123], which damage in maize (maize) is on record?
The damage in maize was “no damage whatsoever”.

— US9169219B2, “Herbicidally active 4-nitro-substituted N-(tetrazol-5-yl)-, N-(triazol-5-yl)-, and N-(1,3,4-0XADIAZOL-2-yl)aryl carboxylic acid amides” (BAYER INTELLECTUAL PROPERTY GMBH, priority 2012, dated 2015)
